Values quoted from earlier work as cited in US20100330607A1, “PHOTOSWITCH-ENABLED ION CHANNEL ASSAY SYSTEM” (Photoswitch Biosciences, Inc., priority 2009, published 2010).
Where two headings read alike, the source gives them in different places.

How the values were obtained:
[1] = read-out: Kd for Ca^2+
[2] = test system: late INa; conditions: ventricular myocytes from guinea-pig hearts
[3] = test system: late INa; conditions: ventricular myocytes from dog hearts
[4] = in the dark, in solution

Question: With `Cc1ccc(N(CC(=O)O)CC(=O)O)c(OCCOc2cc(-c3c4cc(Cl)c(=O)cc-4oc4cc(O)c(Cl)cc34)ccc2N(CC(=O)O)CC(=O)O)c1` [Fluo-3] as the molecule, how does the Kd [1] read?
Answer: 390 nM

Question: Which results are given for `COc1ccccc1OCC(O)CN1CCN(CC(=O)Nc2c(C)cccc2C)CC1` (centres unmarked) [ranolazine]?
Answer: inhibition of the late INa [2]: concentration-, voltage- and frequency-dependent inhibition; inhibition of the late INa [3]: concentration-, voltage- and frequency-dependent inhibition

Question: For Fluo-4, which Kd [1] is on record?
Answer: 345 nM

Question: With Maleimide-Azobenzene-Glutamate [MAG] as the molecule, how does the “rate of thermal relaxation, from cis to trans” value [4] read?
Answer: about 18 mins
